Test results from the supplement of paper PMC10307832.

Assays:
Experiment in all cases: relative viability (nuclei count vs DMSO), 5 days (fraction); higher = more cells survive
[1] = compound: COc1cc(-c2nn([C@H]3CC[C@H](N4CCN(C(C)=O)CC4)CC3)c3ncnc(N)c23)ccc1NC(=O)c1cc2ccccc2n1C + CC(=O)Nc1cccc(-n2c(=O)n(C3CC3)c(=O)c3c(Nc4ccc(I)cc4F)n(C)c(=O)c(C)c32)c1 [Trametinib] (partner 0.02 µM)
Summary of the method: (§1)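 Medians of duplicate plates are given as relative viability. That measure is the nuclei count in treated wells divided by the count in vehicle wells. Counts were taken on 4× images of lung cancer cell lines in 1536-well plates, 5 days after pin-tool dosing the day after seeding with one drug alone or a fixed anchor-drug dose plus five library-drug doses (not always all listed) in √10 steps.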

Midostaurin + Tozasertib = compound: CO[C@@H]1[C@H](N(C)C(=O)c2ccccc2)C[C@H]2O[C@]1(C)n1c3ccccc3c3c4c(c5c6ccccc6n2c5c31)C(=O)NC4 [Midostaurin] + Cc1cc(Nc2cc(N3CCN(C)CC3)nc(Sc3ccc(NC(=O)C4CC4)cc3)n2)n[nH]1 [Tozasertib] (partner 0.1 µM)
Summary of the method: as §1

Midostaurin + Pemetrexed = compound: CO[C@@H]1[C@H](N(C)C(=O)c2ccccc2)C[C@H]2O[C@]1(C)n1c3ccccc3c3c4c(c5c6ccccc6n2c5c31)C(=O)NC4 [Midostaurin] + Nc1nc2[nH]cc(CCc3ccc(C(=O)N[C@@H](CCC(=O)O)C(=O)O)cc3)c2c(=O)[nH]1 [Pemetrexed] (partner 0.2 µM)
Summary of the method: as §1

[2] = compound: COc1cc(-c2nn([C@H]3CC[C@H](N4CCN(C(C)=O)CC4)CC3)c3ncnc(N)c23)ccc1NC(=O)c1cc2ccccc2n1C + NC(=O)Nc1cc(-c2cccc(F)c2)sc1C(=O)N[C@H]1CCCNC1 [AZD7762] (partner 0.2 µM)
Summary of the method: as §1

Midostaurin + Decitabine = compound: CO[C@@H]1[C@H](N(C)C(=O)c2ccccc2)C[C@H]2O[C@]1(C)n1c3ccccc3c3c4c(c5c6ccccc6n2c5c31)C(=O)NC4 [Midostaurin] + Nc1ncn([C@H]2C[C@H](O)[C@@H](CO)O2)c(=O)n1 [Decitabine] (partner 2 µM)
Summary of the method: as §1

Cell Line | relative viability ([1]; first compound 0.0128 µM) | relative viability ([1]; first compound 0.04048 µM) | relative viability ([1]; first compound 0.128 µM) | relative viability ([1]; first compound 1.28 µM) | relative viability (Midostaurin + Tozasertib; first compound 0.01 µM) | relative viability (Midostaurin + Tozasertib; first compound 0.03162 µM) | relative viability (Midostaurin + Tozasertib; first compound 0.1 µM) | relative viability (Midostaurin + Tozasertib; first compound 0.3162 µM) | relative viability (Midostaurin + Pemetrexed; first compound 0.01 µM) | relative viability (Midostaurin + Pemetrexed; first compound 0.03162 µM) | relative viability (Midostaurin + Pemetrexed; first compound 0.1 µM) | relative viability (Midostaurin + Pemetrexed; first compound 0.3162 µM) | relative viability ([2]; first compound 0.0128 µM) | relative viability ([2]; first compound 0.04048 µM) | relative viability ([2]; first compound 0.128 µM) | relative viability ([2]; first compound 1.28 µM) | relative viability (Midostaurin + Decitabine; first compound 0.01 µM) | relative viability (Midostaurin + Decitabine; first compound 0.03162 µM) | relative viability (Midostaurin + Decitabine; first compound 0.1 µM) | relative viability (Midostaurin + Decitabine; first compound 0.3162 µM)
LK-2 | 0.978 | 0.399 | 0.577 | 0.47 | 0.175 | 0.147 | 0.18 | 0.173 | 0.265 | 0.262 | 0.299 | 0.342 | 0.485 | 0.243 | 0.321 | 0.188 | 0.262 | 0.272 | 0.405 | 0.299
LOU-NH91 | 0.821 | 0.828 | 0.822 | 0.728 | 0.722 | 0.608 | 0.653 | 0.642 | 0.317 | 0.399 | 0.37 | 0.397 | 0.813 | 0.796 | 0.732 | 0.658 | 0.783 | 0.781 | 0.835 | 0.798
LU99A | 0.578 | 0.288 | 0.529 | 0.489 | 0.227 | 0.304 | 0.259 | 0.244 | 0.182 | 0.165 | 0.167 | 0.224 | 0.327 | 0.404 | 0.352 | 0.35 | 0.912 | 0.948 | 0.657 | 0.594
LXF-289 | 0.78 | 0.468 | 0.692 | 0.811 | 0.23 | 0.23 | 0.178 | 0.176 | 0.891 | 0.903 | 0.888 | 0.896 | 1.29 | 0.964 | 1.04 | 1.14 | 0.394 | 0.339 | 0.342 | 0.401
NCI-H23 | 0.405 | 0.25 | 0.281 | 0.226 | 0.344 | 0.575 | 0.348 | 0.259 | 0.635 | 0.671 | 0.533 | 0.458 | 0.268 | 0.199 | 0.261 | 0.199 | 0.302 | 0.368 | 0.308 | 0.249
NCI-H322M | 0.453 | 0.489 | 0.491 | 0.463 | 0.474 | 0.477 | 0.481 | 0.544 | 0.692 | 0.527 | 0.677 | 0.677 | 0.496 | 0.599 | 0.536 | 0.444 | 0.638 | 0.673 | 0.651 | 0.715
NCI-H358 | 0.153 | 0.125 | 0.131 | 0.115 | 0.103 | 0.101 | 0.0978 | 0.112 | 0.158 | 0.167 | 0.173 | 0.159 | 0.496 | 0.5 | 0.444 | 0.225 | 0.228 | 0.236 | 0.231 | 0.25
NCI-H441 | 0.438 | 0.463 | 0.407 | 0.336 | 0.592 | 0.631 | 0.564 | 0.401 | 0.304 | 0.259 | 0.222 | 0.254 | 1.21 | 1.01 | 1.12 | 0.717 | 0.249 | 0.237 | 0.221 | 0.23
NCI-H460 | 0.111 | 0.0655 | 0.148 | 0.058 | 0.448 | 0.492 | 0.44 | 0.415 | 0.0611 | 0.0661 | 0.0666 | 0.0626 | 0.618 | 0.73 | 0.603 | 0.579 | 0.491 | 0.526 | 0.53 | 0.638
NCI-H522 | 0.77 | 0.514 | 0.723 | 0.73 | 0.557 | 0.607 | 0.629 | 0.621 | 1.19 | 1.14 | 0.941 | 1.24 | 0.73 | 0.848 | 0.909 | 0.892 | 0.584 | 0.638 | 0.822 | 0.525
NCI-H596 | 0.915 | 0.8 | 0.88 | 0.554 | 0.991 | 0.977 | 0.899 | 0.947 | 0.528 | 0.551 | 0.488 | 0.551 | 1.55 | 1.15 | 1.09 | 0.851 | 1.1 | 1.11 | 1.07 | 1.12
NCI-H647 | 0.543 | 0.265 | 0.333 | 0.169 | 0.411 | 0.35 | 0.293 | 0.18 | 0.185 | 0.2 | 0.184 | 0.112 | 0.503 | 0.602 | 0.403 | 0.367 | 0.405 | 0.433 | 0.346 | 0.374
NCI-H650 | 0.993 | 0.501 | 1.15 | 0.879 | 0.657 | 0.751 | 0.749 | 0.615 | 0.906 | 0.892 | 0.99 | 0.686 | 1.13 | 1.02 | 0.975 | 0.935 | 0.339 | 0.311 | 0.321 | 0.334
NCI-H838 | 0.5 | 0.479 | 0.506 | 0.403 | 0.271 | 0.283 | 0.262 | 0.286 | 0.238 | 0.236 | 0.208 | 0.216 | 1 | 0.921 | 0.91 | 0.75 | 0.478 | 0.447 | 0.385 | 0.328
NCI-H1355 | 0.416 | 0.313 | 0.387 | 0.447 | 0.544 | 0.632 | 0.597 | 0.475 | 1.04 | 1.07 | 1.14 | 1.09 | 0.75 | 0.788 | 0.654 | 0.619 | 0.361 | 0.386 | 0.346 | 0.348
